From PMC11373213, “Anti-Toxoplasma gondii effects of XYP1-derived peptides and regulatory mechanisms of XYP1” (Parasites & Vectors, 2024)
Peptide text beside a SMILES is read from it.

Tests used:
T. gondii tachyzoites [1] = experiment: Trypan blue staining (exclusion) assay, killing of tachyzoites; type: cell-based, Toxoplasma gondii; settings: 10 μM peptide, 2 h incubation with T. gondii, optical microscope, Fig. 2A
Experimental: When T. gondii died, trypan blue was able to cross its cell membrane and enter the interior, making it blue. Trypan blue exclusion test was undertaken as mentioned before. Firstly, 10 μM different XYP1-derived peptides were prepared, incubated with T. gondii for 2 h, and then the trypan blue dye was added. After 3–5 min, the survival rate of T. gondii was observed by optical microscope and the mortality rate was calculated.

T. gondii tachyzoites [2] = experiment: Transmission electron microscopy of tachyzoite internal structure; type: cell-based, Toxoplasma gondii; settings: 10 μM peptide, 2 h; Fig. 5
Experimental: TEM steps mainly include fixing, rinsing, dehydration, infiltration, embedding, etc. After the T. gondii samples were fixed in 4% glutaraldehyde, they were washed with a cacodylate buffer, and 1% osmium tetroxide was used to fix the sample at 4 ℃ for 2 h. The fixed samples were then washed and subjected to a series of gradient dewatering treatments before being embedded in epoxy resin and polymerized at 60 ℃. After polymerization, the sample was sliced and double stained. Finally, the internal structure of T. gondii tachyzoites treated with different polypeptides was observed by TEM (Tecnai G2 Spirit TWIN, USA).

CCK-8 cytotoxicity assay = type: cell-based; settings: human; CCK-8, HFFs, 24 h with peptide then 2 h with CCK-8, OD540; Fig. 3C
Experimental: […] After 24 h, 10 μL CCK-8 solution (APExBIO, USA) was added and incubated for another 2 h. The OD540 value was then measured and the cell mortality was calculated.

[3] = system: T. gondii RH strain tachyzoites; experiment: Mouse survival assay after T. gondii RH infection; type: in vivo; settings: mice i.p. 1000 RH strain tachyzoites; for effect on survival time of infected mice (in words): peptide after 4 h, 4 mg/kg, Fig. 3E; for survival of infected mice prolonged to: peptide injected after 4 h, 4 mg/kg (legend; method says 4 mg/mL), control group all died at 127.1 h
Experimental: The anti-T. gondii effect of peptides in vivo was investigated through a mouse survival experiment. The experiment was divided into a PBS control group and different polypeptide groups. Each group of mice was intraperitoneally injected with 1000 RH strain tachyzoites. After 4 h, the pre-prepared 4 mg/mL peptides were injected into the mice. The survival time of mice in each group was recorded and analyzed statistically.

[4] = system: tachyzoites of RH-GFP-TgAtg8 T. gondii strain; experiment: Fluorescence microscopy killing assay with RH-GFP-TgAtg8 tachyzoites; type: cell-based, Toxoplasma gondii; settings: for fluorescence area and intensity of RH-GFP-TgAtg8 tachyzoites vs control: 10 μM peptide, 2 h incubation, fluorescence microscopy, Fig. 2C, D; for concentration dependence of killing effect (fluorescence area and intensity): 5 μM, 10 μM, 20 μM, room temperature, 2 h, Fig. 3A, B
Experimental: To explore the concentration dependence of the polypeptides against T. gondii, XYP1-derived peptide solutions with different concentration gradients (5 μM, 10 μM, 20 μM) were prepared and then mixed with T. gondii tachyzoites at room temperature. After incubation for 2 h, the anti-T. gondii effect was observed by fluorescence microscopy.

human red blood cells = experiment: Hemolysis assay; type: cell-based; settings: 1% human red blood cells in PBS, 37 ℃, 30 min, OD540
Experimental: The hemolytic activity of peptides was determined by the amount of hemoglobin released from lysed human red blood cells. Normal human blood was mixed 1:1 with Aldrin’s fluid, followed by centrifuging, and phosphate buffered saline (PBS) was added to make 1% red blood cell resuspension. The 50 μL resuspension was mixed with 50 μL PBS, 1% Triton X-100, 70% DMSO (Sigma, USA), and different concentrations of polypeptides, then incubated at 37 ℃ for 30 min. After centrifugation, the OD540 value of the supernatant was measured by Microplate reader (Agilent, USA) and the hemolysis rate was calculated.

TP53 = experiment: qRT-PCR of TP53 transcription; type: cell-based, human; settings: qPCR, XYP1 treatment group vs control; Fig. 7G
Experimental: (§1) The control group consisted of HFF cells infected with T. gondii without XYP1, and the experimental group was treated with XYP1 for 8 h. Total RNAs were extracted from the control and experimental groups and reverse to cDNA, with three replicates per group. After the steps of end repair, A-tailing, and adapter ligation, the samples were proceeded with polymerase chain reaction (PCR) amplification and Illumina transcriptome sequencing in the OE biotech Co., Ltd. (Shanghai, China). Trimmomatic software was used to filter the raw data to obtain high-quality data information. Subsequently, the filtered data was aligned and assembled using HISAT2 [30] and StringTie tool. The number of reads mapped to each gene in each sample was calculated.
(§2) The total RNAs from different samples were extracted using the classical Trizol method. The PerfectStart Uni RT&qPCR Kit (TransGen Biotech, China) was used to efficiently reverse transcribe RNA into cDNA and synthesize the first strand. The qRT-PCR reaction system contains cDNA temple, forward and reverse primers, double stranded DNA fluorescent dye (SYBR Green I), DNA polymerase, dNTP and buffer. The PCR reaction was performed using a two-step amplification procedure: 94 ℃ for 30 s (pre-denaturation) followed by 40 cycles of 94 ℃ for 5 s and 60 ℃ for 30 s. Finally, the relative expression of each gene was calculated by 2^−∆∆Cq method.

IL-17 = experiment: qRT-PCR of IL-17 transcription; type: cell-based, human; settings: qPCR, XYP1 treatment group vs control; Fig. 7F
Experimental: as §1, §2

NF-kB = experiment: qRT-PCR of NF-kB transcription; type: cell-based, human; settings: qPCR, XYP1 treatment group vs control; Fig. 7H
Experimental: as §1, §2

T. gondii tachyzoites [5] = settings: 10 μM XYP1; previous study; cited from earlier work
Experimental: Therefore, trypan blue staining assay was used to compare the killing activity in vitro of 10 μM different derived peptides and XYP1.

CC[C@H](C)[C@H](NC(=O)[C@H](CCCCN)NC(=O)[C@H](CCCCN)NC(=O)[C@H](C)NC(=O)[C@@H](NC(=O)[C@H](CCCCN)NC(=O)[C@H](CCCCN)NC(=O)[C@H](CCSC)NC(=O)[C@H](CCCCN)NC(=O)[C@H](CCCCN)NC(=O)[C@H](Cc1ccccc1)NC(=O)[C@H](Cc1c[nH]c2ccccc12)NC(=O)[C@H](CCCCN)NC(=O)[C@H](CCCCN)NC(=O)[C@@H](N)CC(C)C)[C@@H](C)CC)C(=O)N[C@@H](C)C(=O)N[C@@H](CCCCN)C(=O)N[C@@H](CC(C)C)C(=O)O [XYP1-18-1] (H-LKKWFKKMKKIAKKIAKL-OH; N-terminus and C-terminus assumed)
anti-T. gondii killing activity (toxoplasma mortality, trypan blue) (T. gondii tachyzoites [1]): good anti-T. gondii activity | damage of internal structure of tachyzoites (TEM) (T. gondii tachyzoites [2]): shrinkage and vacuolization, but also complete dissolution of the tachyzoites observed | IC50 at 24 h (CCK-8 cytotoxicity assay): 45.6 µM | effect on survival time of infected mice (in words) [3]: poor effect on prolonging the survival time of mice | survival of infected mice prolonged to [3]: 145 h | fluorescence area and intensity of RH-GFP-TgAtg8 tachyzoites vs control [4]: significantly reduced compared with the control group

CC[C@H](C)[C@H](NC(=O)[C@H](Cc1ccccc1)NC(=O)[C@H](CCCCN)NC(=O)[C@H](C)NC(=O)[C@@H](NC(=O)[C@H](CO)NC(=O)[C@H](CCCCN)NC(=O)[C@H](CCSC)NC(=O)[C@H](C)NC(=O)[C@H](CCCCN)NC(=O)[C@H](Cc1ccccc1)NC(=O)[C@H](Cc1c[nH]c2ccccc12)NC(=O)[C@H](CCCCN)NC(=O)[C@@H](NC(=O)[C@@H](N)CCCCN)[C@@H](C)CC)[C@@H](C)CC)C(=O)N[C@@H](C)C(=O)N[C@@H](CCCCN)C(=O)N[C@@H](CC(=O)O)C(=O)O [XYP1-18] (H-KIKWFKAMKSIAKFIAKD-OH; N-terminus and C-terminus assumed)
anti-T. gondii killing activity (toxoplasma mortality, trypan blue) (T. gondii tachyzoites [1]): comparable to XYP1 | damage of internal structure of tachyzoites (TEM) (T. gondii tachyzoites [2]): severe deformation and rupture of the surface membrane, but also serious shrinkage and vacuolization internally | hemolysis at 1.25 μM to 80 μM (human red blood cells; 1.25 μM to 80 μM): almost no hemolysis | hemolysis at the highest concentration (160 μM) (human red blood cells; 160 μM): only minor hemolysis | IC50 at 24 h (CCK-8 cytotoxicity assay): 80.6 µM | effect on survival time of infected mice (in words) [3]: no significant difference between XYP1-18 and XYP1 | survival of infected mice prolonged to [3]: 191 h | concentration dependence of killing effect (fluorescence area and intensity) [4]: statistically different | fluorescence area and intensity of RH-GFP-TgAtg8 tachyzoites vs control [4]: significantly reduced compared with the control group

CC[C@H](C)[C@H](NC(=O)[C@H](Cc1ccccc1)NC(=O)[C@H](CCCCN)NC(=O)[C@H](C)NC(=O)[C@@H](NC(=O)[C@H](CO)NC(=O)[C@H](CCCCN)NC(=O)[C@H](CCSC)NC(=O)[C@H](C)NC(=O)[C@H](CCCCN)NC(=O)[C@H](Cc1ccccc1)NC(=O)[C@H](Cc1c[nH]c2ccccc12)NC(=O)[C@H](CCCCN)NC(=O)[C@@H](NC(=O)[C@@H](N)CCCCN)[C@@H](C)CC)[C@@H](C)CC)C(=O)N[C@@H](C)C(=O)N[C@@H](CCCCN)C(=O)N[C@@H](CC(=O)O)C(=O)N[C@@H](CCC(N)=O)C(=O)N[C@@H](CC(C)C)C(=O)N[C@@H](CCCCN)C(=O)N[C@@H](CCCCN)C(=O)N[C@@H](Cc1c[nH]cn1)C(=O)N[C@@H](CC(C)C)C(=O)O [XYP1] (H-KIKWFKAMKSIAKFIAKDQLKKHL-OH; N-terminus and C-terminus assumed)
transcription level of TP53 (TP53): down-regulated | transcription level of IL-17 (IL-17): down-regulated | transcription level of NF-kB (NF-kB): up-regulated | anti-T. gondii killing activity (toxoplasma mortality, trypan blue) (T. gondii tachyzoites [1]): consistent with the previous findings | damage of internal structure of tachyzoites (TEM) (T. gondii tachyzoites [2]): ruptures in the surface membrane, but also different degrees of vacuolization internally | killing of T. gondii tachyzoites (T. gondii tachyzoites [5]): can kill T. gondii tachyzoites | hemolysis at 1.25 μM to 10 μM (human red blood cells; 1.25 μM to 10 μM): almost no hemolysis reaction was observed | IC50 at 24 h (CCK-8 cytotoxicity assay): 33.6 µM | survival of infected mice prolonged to [3]: 208.5 h | concentration dependence of killing effect (fluorescence area and intensity) [4]: statistically different
